Experimental data from the NIST ThermoML archive (doi:10.1021/je049551l).
± gives the expanded uncertainty stated by the source.

Conditions: Crystal; DTA

Row | SMILES | Normal melting temperature
1 | O=c1oc(-c2ccccc2)nc2ccccc12 [2-phenyl-4H-3,1-benzoxazin-4-one] | 124.00 ± 2 °C
2 | O=c1[nH]cc(F)c(=O)[nH]1 [5-fluoro-2,4(1H,3H)-pyrimidinedione] | 284.00 ± 4 °C
3 | COc1ccc2cc([C@H](C)C(=O)O)ccc2c1 [(S)-(+)-naproxen] | 157.50 ± 1.1 °C
4 | CC(=O)Nc1ccc(O)cc1 [N-acetyl-p-aminophenol] | 170.00 ± 4 °C
5 | NC(=O)/N=N/C(N)=O [azodicarbonamide] | 224.50 ± 1.1 °C
6 | CC(C)Cc1ccc(C(C)C(=O)O)cc1 (stereo not drawn) [ibuprofen] | 74.50 ± 3 °C
7 | CC(=O)O[C@H]1C(=O)[C@@]2(C)[C@H]([C@H](OC(=O)c3ccccc3)[C@]3(O)C[C@H](OC(=O)[C@H](O)[C@@H](NC(=O)c4ccccc4)c4ccccc4)C(C)=C1C3(C)C)[C@]1(OC(C)=O)CO[C@@H]1C[C@@H]2O [paclitaxel] | 215.00 ± 4 °C
8 | Cc1cn([C@H]2C[C@H](O)[C@@H](CO)O2)c(=O)[nH]c1=O [thymidine] | 187.00 ± 2 °C
